Laboratory results published in patent US20040166058A1, “Ethylenedicysteine (EC)-drug conjugates, compositions and methods for tissue specific disease imaging” (Board of Regents, The University of Texas System, priority 2002, published 2004).

Test system: RBA CRL-1747 mammary tumor
Assay: Biodistribution in mammary (breast) tumor-bearing rats
Assay type: in vivo
Conditions: iv
Description: Biodistribution was assessed in mammary tumor-bearing rats (RBA CRL-1747, n=3/time interval, iv). Studies were performed 14 to 17 days after implantation when tumors reached approximately 1 cm in diameter. Following administration of the radiotracer, rats were sacrificed at 0.5-4 hrs. The selected tissues were excised, weighed and counted for radioactivity by using a gamma counter (Packard Instruments, Downers Grove, Ill.). The biodistribution of tracer in each sample was calculated as percentage of the injected dose per gram of tissue wet weight (% ID/g).
Biodistribution was assessed in breast tumor-bearing rats (RBA CRL-1747, n=3/time interval, iv). Studies were performed 14 to 17 days after implantation when tumors reached approximately 1 cm in diameter. Following administration of the radiotracer, rats were sacrificed at 0.5-4 hrs. The selected tissues were excised, weighed and counted for radioactivity by using a gamma counter (Packard Instruments, Downers Grove, Ill.). The biodistribution of tracer in each sample was calculated as percentage of the injected dose per gram of tissue wet weight (% ID/g).

Compound: O=C(O)[C@@H]1C[S][99Tc]23(=[O])[S]C[C@@H](C(=O)O)[N]2CC[N]13 [^99mTc-EC, ^99mTc-L,L-ethylenedicysteine, reference compound]
- Biodistribution Blood (1 Hour): 0.273 ± 0.039 % ID/g
- Biodistribution Intestine (1 Hour): 0.787 ± 0.106 % ID/g
- Biodistribution Kidney (1 Hour): 8.991 ± 0.268 % ID/g
- Biodistribution Liver (1 Hour): 0.367 ± 0.006 % ID/g
- Biodistribution Lung (1 Hour): 0.187 ± 0.029 % ID/g
- Biodistribution Muscle (1 Hour): 0.043 ± 0.002 % ID/g
- Biodistribution Stomach (1 Hour): 0.127 ± 0.106 % ID/g
- Biodistribution Thyroid (1 Hour): 0.229 ± 0.118 % ID/g
- Biodistribution Tumor (1 Hour): 0.149 ± 0.020 % ID/g
- Biodistribution Urine (1 Hour): 11.045 ± 6.158 % ID/g
- Tumor/Blood (1 Hour): 0.544 ± 0.004
- Tumor/Lung (1 Hour): 0.797 ± 0.022
- Tumor/Muscle (1 Hour): 3.414 ± 0.325
- Biodistribution Blood (2 Hour): 0.211 ± 0.001 % ID/g
- Biodistribution Intestine (2 Hour): 0.401 ± 0.093 % ID/g
- Biodistribution Kidney (2 Hour): 9.116 ± 0.053 % ID/g
- Biodistribution Liver (2 Hour): 0.286 ± 0.073 % ID/g
- Biodistribution Lung (2 Hour): 0.144 ± 0.002 % ID/g
- Biodistribution Muscle (2 Hour): 0.028 ± 0.009 % ID/g
- Biodistribution Stomach (2 Hour): 0.037 ± 0.027 % ID/g
- Biodistribution Thyroid (2 Hour): 0.106 ± 0.003 % ID/g
- Biodistribution Tumor (2 Hour): 0.115 ± 0.002 % ID/g
- Biodistribution Urine (2 Hour): 13.192 ± 4.505 % ID/g
- Tumor/Blood (2 Hour): 0.546 ± 0.010
- Tumor/Lung (2 Hour): 0.797 ± 0.002
- Tumor/Muscle (2 Hour): 4.425 ± 1.397
- Biodistribution Blood (4 Hour): 0.149 ± 0.008 % ID/g
- Biodistribution Intestine (4 Hour): 0.103 ± 0.009 % ID/g
- Biodistribution Kidney (4 Hour): 7.834 ± 1.018 % ID/g
- Biodistribution Liver (4 Hour): 0.234 ± 0.016 % ID/g
- Biodistribution Lung (4 Hour): 0.120 ± 0.012 % ID/g
- Biodistribution Muscle (4 Hour): 0.019 ± 0.001 % ID/g
- Biodistribution Stomach (4 Hour): 0.043 ± 0.014 % ID/g
- Biodistribution Thyroid (4 Hour): 0.082 ± 0.005 % ID/g
- Biodistribution Tumor (4 Hour): 0.096 ± 0.005 % ID/g
- Biodistribution Urine (4 Hour): 8.693 ± 2.981 % ID/g
- Tumor/Blood (4 Hour): 0.649 ± 0.005
- Tumor/Lung (4 Hour): 0.798 ± 0.007
- Tumor/Muscle (4 Hour): 5.093 ± 0.223
- Biodistribution Blood (30 Min.): 0.435 ± 0.29 % ID/g
- Biodistribution Intestine (30 Min.): 0.173 ± 0.029 % ID/g
- Biodistribution Kidney (30 Min.): 7.914 ± 0.896 % ID/g
- Biodistribution Liver (30 Min.): 0.508 ± 0.062 % ID/g
- Biodistribution Lung (30 Min.): 0.272 ± 0.019 % ID/g
- Biodistribution Muscle (30 Min.): 0.060 ± 0.006 % ID/g
- Biodistribution Stomach (30 Min.): 0.136 ± 0.060 % ID/g
- Biodistribution Thyroid (30 Min.): 0.219 ± 0.036 % ID/g
- Biodistribution Tumor (30 Min.): 0.342 ± 0.163 % ID/g
- Biodistribution Urine (30 Min.): 9.124 ± 0.808 % ID/g
- Tumor/Blood (30 Min.): 0.776 ± 0.322
- Tumor/Lung (30 Min.): 1.256 ± 0.430
- Tumor/Muscle (30 Min.): 5.841 ± 3.253
